In US5863950A, “HIV protease inhibitors” (Agouron Pharmaceuticals, Inc., priority 1994, dated 1999):
Converted amounts (≈) assume the structure as drawn. Like-named read-outs stand apart in the source and are kept apart here.

Experiments:
[1] = molecular target: T1, HIV-1 protease (Human immunodeficiency virus type 1 group M subtype B, UniProt P04585); assay: biochemical; type: biochemical
T1 construct: purified HIV-1 protease
Description: 1. Proteolytic activity of purified HIV-1 protease was routinely measured using the chromogenic assay developed by Richards et al. (J. Biol. Chem. 265: 7733 (1990)). Synthetic peptide His-Lys-Ala-Arg-Val-Leu-Phe (pNO2)-Glu-Ala-Nle-Ser-NH2 (American Peptide Company) was used as the substrate.
2. The assay was carried out in 0.5M NaCl, 50 mM MES pH 5.6, 2% DMSO (dimethylsulfoxide) at 37° C. Cleavage of the scissile bond between leucine and paranitro-phenylalanine (Phe(pNO2)) was assayed by spectrophotometric monitoring of the decrease in absorbance at 305 nm. Initial velocity was determined as the rate of decline of absorbance during the first 100 seconds of reaction.
3. […] Between 15-25 concentrations of inhibitor were added and velocity of reaction was measured at each of the concentrations, as described above.
4. Inhibition constants were calculated using the method of Jackson et al. (Adv. in Enzyme Regulation 22: 187 (1984)).

[2] = test system: HIV-1 (CEM cells); assay: Anti-HIV MTT assay, inhibition of HIV-induced cell killing, CEM cells; type: cell-based, HIV-1 isolates IIIB and/or RF; details: Human immunodeficiency virus 1, CCRF-CEM, 144 h, CEM cell line (first position), 6 days, 37° C., read-out: Viral CEM
From the text: (§1) SRI has an established program for the primary antiviral analysis of compounds in microtiter assays which measure the ability of a selected compound to inhibit HIV-induced cell killing. This assay involves the conversion of the tetrazolium dye MTT to a colored formazan product by mitochondrial enzymes in metabolically active cells. This assay system is presently used at SRI to screen over 30,000 compounds per year. Briefly, the assay involves the infection of CEM or MT2 cells in round bottom 96-well plates. The compound of interest is added just prior to infection. Following 6 days of incubation at 37° C. the plates are stained with MTT. The results of the assay are quantitated spectrophotometrically on a Molecular Devices Vmax plate reader. The data is analyzed by linear regression utilizing an in-house software program to calculate antiviral activity. (IC25, IC50, IC95) and toxicity (TC25, TC50, TC95) as well as other values.
(§2) Primary antiviral assays are routinely performed in CEM or MT-2 cells.
(§3) Drugs will be solubilized in the appropriate vehicle such as distilled water or DMSO if necessary. Latex gloves, lab coats and masks are used during all phases of the handling process to prevent exposure to potentially harmful agents. The drug is prepared at the appropriate concentration and stored at -20° C. until used by the screening laboratory. The first dilution of each compound is made in a dilution tube with medium to yield a concentration two-fold that of the highest test concentration. Sterile titer tubes are then used to make serial one half-log dilutions of each compound. Following drug dilution, the diluted compound is added to the appropriate well of a 96-well microtiter plate. Up to 12 dilutions can be assayed conveniently in triplicate on a single plate with all appropriate controls including cell control, virus control, toxicity control, drug color control, medium control and plastic (background) control. When testing includes only six dilutions, two drugs can be assayed on a single microtiter plate. The drugs are added to the plate in a final volume of 100 microliters.
(§4) During the time the drug dilutions are prepared, cells are washed and counted. Viability is monitored by trypan blue dye exclusion and assays are not performed if the viability falls below 90%. Cells are maintained in an exponential growth phase and are split 1:2 on the day prior to assay to assure exponential growth rate.
(§5) For the primary screen, the cell lines utilized are CEM and MT-2. Unless otherwise indicated, the medium used is RPMI 1640 with 10% heat-inactivated fetal calf serum (FBS), glutamine and antibiotics.
(§6) Cells are propagated at 37° C. in an atmosphere of 5% CO2 in air. The virus employed for this work is HIV-1 isolates IIIB and/or RF, which are prepared by an acute infection process.
(§7) Briefly, virus-infected cells are pelleted on a daily basis beginning at three days post-infection until the virus has killed all of the cells in the culture. Reverse transcriptase activity and p24 ELISA are used to identify pools with the greatest amount of virus.
(§8) These 24-hour harvests are pooled, filtered and frozen at -90° C. Prior to use in the assay, the infectious pool of virus is titered on all available cell lines in order to determine the amount of virus required in the antiviral assay.
(§9) In general, pools produced by the acute infection method require the addition of one microliter of infectious virus per well resulting in the screening of drugs at a multiplicity of infection of 0.01. In this manner enough virus is prepared and frozen to complete over one thousand microtiter plates, allowing the testing of up to two thousand compounds from a single stock of infectious virus. The use of a single stock of virus for a long period of testing has very favorable effects on the repeatability of the assay systems.
(§10) Virus infection of the CEM and MT-2 cells for the antiviral assay is carried out in a bulk infection process. […]

[3] = test system: HIV-1 (MT-2 cells); assay: Anti-HIV MTT assay, inhibition of HIV-induced cell killing, MT-2 cells; type: cell-based, HIV-1 isolates IIIB and/or RF; details: Human immunodeficiency virus 1, MT2, 144 h; MT-2 cells (second position), 6 days, 37° C., MTT; read-out: Viral MT-2
From the text: as §1, §2, §3, §4, §5, §6, §7, §8, §9, §10

[4] = 0.5M NaCl, 50 mM MES pH 5.6, 2% DMSO, 37° C., 200 μM substrate

Row | Compound | IC50 [1] [nM] | Ki [1] [nM] | IC50 [2] [µg/mL] | IC50 [3] [µg/mL] | IC50 [1, 4] [nM] | Ki [1, 4] [nM] | Km ([1]; substrate, standard conditions, read-out: Michaelis constant (Km)) [µM]
1 | CC(C)(C)N(CCO)C(=O)c1ccccc1CCC(O)Cc1ccccc1C(=O)N(CCO)C(C)(C)C (stereo not shown) [Example 1] | 1030 | 835 | 18.6 (≈ 36.3 µM) | 23 (≈ 44.9 µM) | – | – | –
2 | CC(C)(C)N(CCO)C(=O)c1ccccc1CCC(O)Cc1ccccc1C(=O)N(CCO)C1(C)CCCC1 (stereo not shown) [Example 5] | – | – | 17.4 (≈ 32.3 µM) | 32 (≈ 59.4 µM) | 950 | 840 | –
3 | CC(C)(C)NC(=O)c1c(CCC(O)Cc2ccccc2C(=O)N(Cc2ncc[nH]2)C(C)(C)C)ccc2ccccc12 (stereo not shown) [Example 12] | – | – | 29.5 (≈ 53.2 µM) | – | 820 | 790 | –
4 | CCC1(N(CCO)C(=O)c2ccccc2CCC(O)Cc2ccc(C)cc2C(=O)N(CCO)C(C)(C)c2ccccc2)CCCC1 (stereo not shown) [Example 18] | – | – | 0.49 (≈ 0.779 µM) | 0.53 (≈ 0.843 µM) | – | – | –
5 | Cc1ccc(CCC(O)Cc2ccccc2C(=O)N(CCO)C(C)(C)c2ccccc2)c(C(=O)N(CCO)C(C)(C)C)c1 (stereo not shown) [Example 62] | – | – | 2.86 (≈ 4.86 µM) | 4.98 (≈ 8.46 µM) | 169 | 152 | –
6 | CC(C)(c1ccccc1)N(CCO)C(=O)c1ccccc1CCC(O)Cc1ccccc1C(=O)N(CCO)C(C)(C)c1ccccc1 (stereo not shown) [Example 65] | – | – | 0.89 (≈ 1.4 µM) | 1.76 (≈ 2.76 µM) | 82 | 31 | –
7 | CC(C)(C)N(CCO)C(=O)c1ccccc1CCC(O)Cc1ccccc1C(=O)N(CCO)C(C)(C)c1ccc2ccccc2c1 (stereo not shown) [Example 66] | – | – | 4.53 (≈ 7.25 µM) | 12.7 (≈ 20.3 µM) | 250 | 145 | –
8 | CC(C)(C)N(CCO)C(=O)c1ccccc1CCC(O)Cc1ccccc1C(=O)N(Cc1ncc[nH]1)C(C)(C)c1ccccc1 (stereo not shown) [Example 72] | – | – | 5.54 (≈ 9.07 µM) | 17.9 (≈ 29.3 µM) | 326 | 100 | –
9 | CC(C)(C)NC(=O)c1cc(Sc2ccccc2)ccc1CCC(O)Cc1ccccc1C(=O)N(CCO)C(C)(C)C (stereo not shown) [Example 73] | – | – | > 10 | > 10 | 680 | 717 | –
10 | Cc1ccc(CC(O)CCc2ccccc2C(=O)N(CCO)C(C)(C)C)c(C(=O)N(CCO)C(C)(C)c2ccccc2)c1 (stereo not shown) [Example 74] | – | – | 3.69 (≈ 6.27 µM) | 5.54 (≈ 9.41 µM) | 180 | 21 | –
11 | CC(C)(C)N(CCCO)C(=O)c1ccccc1CCC(O)Cc1ccccc1C(=O)N(CCOCCN1CCOCC1)C(C)(C)c1ccccc1 (stereo not shown) [Example 75] | – | – | – | – | 8000 | – | –
12 | CC(C)(C)N(CCO)C(=O)c1ccccc1CCC(O)Cc1ccccc1C(=O)N(CCOCc1ccccc1)C(C)(C)c1ccncc1 (stereo not shown) [Example 76] | – | – | – | – | 1740 | 920 | –
13 | CC(C)(C)N(CCO)C(=O)c1ccccc1CCC(O)Cc1ccccc1C(=O)N(CCO)C(C)(C)c1ccncc1 (stereo not shown) [Example 77] | – | – | 7.57 (≈ 13.1 µM) | 16.4 (≈ 28.5 µM) | 1230 | 1010 | –
14 | CC(C)(C)N(CCO)C(=O)c1ccccc1CCC(=O)C(F)(F)c1ccccc1C(=O)N(CCO)C(C)(C)c1ccccc1 [Example 78] | – | – | > 10 | 6.64 (≈ 10.9 µM) | 420 | 320 | –
15 | CC(C)(C)N(CCO)C(=O)c1ccccc1CCC(O)C(F)(F)c1ccccc1C(=O)N(CCO)C(C)(C)c1ccccc1 (stereo not shown) [Example 79] | – | – | – | – | 3500 | 3200 | –
16 | Cc1ccc(CC(O)CCc2ccccc2C(=O)N(CCO)C(C)(C)c2ccccc2)c(C(=O)N(CCO)C(C)(C)c2ccccc2)c1 (stereo not shown) [Example 80] | – | – | 0.53 (≈ 0.814 µM) | 0.68 (≈ 1.04 µM) | 89 | 12 | –
17 | CC(C)(C)N(CCO)C(=O)c1ccccc1CCC(O)Cc1ccccc1C(=O)N(CCO)C12CCCCC1CCC2 (stereo not shown) [Example 81] | – | – | 4.39 (≈ 7.58 µM) | 5.58 (≈ 9.64 µM) | 230 | 64 | –
18 | CCC1(N(CCO)C(=O)c2ccccc2CCC(O)Cc2ccccc2C(=O)N(CCO)C(C)(C)c2ccccc2)CCCC1 (stereo not shown) [Example 82] | – | – | 0.75 (≈ 1.22 µM) | 0.64 (≈ 1.04 µM) | 104 | 17 | –
19 | CC(C)(C)N(CCO)C(=O)c1ccccc1CCC(O)Cc1ccccc1C(=O)N(CCOc1ccncc1)C(C)(C)c1ccccc1 (stereo not shown) [Example 83] | – | – | > 100 | > 100 | 2500 | 735 | –
20 | Cc1ccc(CCC(O)Cc2ccccc2C(=O)N(CCOCc2ccccc2)C(C)(C)c2ccccc2)c(C(=O)N(CCO)C(C)(C)C)c1 (stereo not shown) [Example 84] | – | – | > 100 | > 100 | 351 | 315 | –
21 | CC(C)(C)N(CCO)C(=O)c1ccccc1CC(O)CSc1ccccc1C(=O)N(CCO)C(C)(C)C (stereo not shown) [Example 85] | – | – | – | – | 36000 | 18400 | –
22 | Cc1ccc(CC(O)CCc2ccccc2C(=O)N(Cc2ccccc2)C(C)C)c(C(=O)N(CCO)C(C)(C)c2ccccc2)c1 (stereo not shown) [Example 86] | – | – | – | – | 448 | 379 | –
23 | CCc1ccc(CC(O)CCc2ccccc2C(=O)N(CCOCc2ccccc2)C(C)(C)c2ccccc2)c(C(=O)N(CCO)C(C)(C)c2ccccc2)c1 (stereo not shown) [Example 88] | – | – | – | – | 230 | 75 | –
24 | CCc1ccc(CC(O)CCc2ccccc2C(=O)N(CCO)C(C)(C)c2ccccc2)c(C(=O)N(CCO)C(C)(C)c2ccccc2)c1 (stereo not shown) [Example 89] | – | – | 1 (≈ 1.5 µM) | 1.79 (≈ 2.69 µM) | 144 | 17 | –
25 | Cc1cc(CC(O)CCc2ccccc2C(=O)N(CCO)C(C)(C)C)c(C(=O)N(CCO)C(C)(C)c2ccccc2)cc1C (stereo not shown) [Example 90] | – | – | – | – | 200 | 176 | –
26 | CCC1(N(CCO)C(=O)c2ccccc2CC[C@@H](O)Cc2ccc(C)cc2C(=O)N(CCO)C(C)(C)c2ccccc2)CCCC1 [Example 112] | – | – | 0.54 (≈ 0.859 µM) | 1.47 (≈ 2.34 µM) | – | – | –
27 | His-Lys-Ala-Arg-Val-Leu-Phe (pNO2)-Glu-Ala-Nle-Ser-NH2 [reference compound] | – | – | – | – | – | – | 52 ± 16
